Reference: US11357856B2, “Lipids for delivery of active agents” (Acuitas Therapeutics, Inc., priority 2017, dated 2022)

Experiments:
[1] = Determination of pKa of formulated lipids (TNS fluorescence assay in lipid nanoparticles); type: physicochemical; conditions: cationic lipid formulated in lipid nanoparticles (cationic lipid/DSPC/cholesterol/PEG-lipid 50/10/38.5/1.5 mol %); pH of half-maximal TNS fluorescence
Method: As described elsewhere, the pKa of formulated cationic lipids is correlated with the effectiveness of LNPs for delivery of nucleic acids (see Jayaraman et al, Angewandte Chemie, International Edition (2012), 51(34), 8529-8533; Semple et al, Nature Biotechnology 28, 172-176 (2010)). The preferred range of pKa is ˜5 to ˜7. […] Lipid nanoparticles comprising cationic lipid/DSPC/cholesterol/PEG-lipid (50/10/38.5/1.5 mol %) in PBS at a concentration of 0.4 mM total lipid are prepared using the in-line process as described in Example 1. TNS is prepared as a 100 μM stock solution in distilled water. Vesicles are diluted to 24 μM lipid in 2 mL of buffered solutions containing, 10 mM HEPES, 10 mM MES, 10 mM ammonium acetate, 130 mM NaCl, where the pH ranged from 2.5 to 11. An aliquot of the TNS solution is added to give a final concentration of 1 μM and following vortex mixing fluorescence intensity is measured at room temperature in a SLM Aminco Series 2 Luminescence Spectrophotometer using excitation and emission wavelengths of 321 nm and 445 nm. A sigmoidal best fit analysis is applied to the fluorescence data and the pKa was measured as the pH giving rise to half-maximal fluorescence intensity.

[2] = system: luciferase expression in the liver (FLuc mRNA); test: Luciferase mRNA in vivo evaluation using lipid nanoparticle compositions (liver luciferase expression); parameters: species or system mice; conditions: LNP 50/10/38.5/1.5 (PEG-DMA) or 47.5/10/40.8/1.7, tail vein injection, liver 4 hours after administration; for Liver Luc @ 0.5 mg/kg (ng luc/g liver): 0.5 mg mRNA/kg; for Liver Luc @ 0.3 mg/kg (ng luc/g liver): 0.3 mg mRNA/kg; for Liver Luc @ 1.0 mg/kg (ng luc/g liver): 1.0 mg mRNA/kg
Method: Lipid nanoparticles are prepared and tested according to the general procedures described in PCT Pub. Nos. WO 2015/199952 and WO 2017/004143, the full disclosures of which are incorporated herein by reference. Briefly, cationic lipid, DSPC, cholesterol and PEG-lipid are solubilized in ethanol at a molar ratio of about 50:10:38.5:1.5 or about 47.5:10:40.8:1.7. Lipid nanoparticles (LNP) are prepared at a total lipid to mRNA weight ratio of approximately 10:1 to 30:1. The mRNA is diluted to 0.2 mg/mL in 10 to 50 mM citrate or acetate buffer, pH 4. Syringe pumps are used to mix the ethanolic lipid solution with the mRNA aqueous solution at a ratio of about 1:5 to 1:3 (vol/vol) with total flow rates above 15 mL/min. The ethanol is then removed and the external buffer replaced with PBS by dialysis. Finally, the lipid nanoparticles are filtered through a 0.2 μm pore sterile filter. Lipid nanoparticle particle size is approximately 55-95 nm diameter, and in some instances approximately 70-90 nm diameter as determined by quasi-elastic light scattering using a Malvern Zetasizer Nano ZS (Malvern, UK).
Studies are performed in 6-8 week old female C57BL/6 mice (Charles River) or 8-10 week old CD-1 (Harlan) mice (Charles River) according to guidelines established by an institutional animal care committee (ACC) and the Canadian Council on Animal Care (CCAC). Varying doses of mRNA-lipid nanoparticle are systemically administered by tail vein injection and animals euthanized at a specific time point (e.g., 4 hours) post-administration. Liver and spleen are collected in pre-weighed tubes, weights determined, immediately snap frozen in liquid nitrogen and stored at −80° C. until processing for analysis.
For liver, approximately 50 mg is dissected for analyses in a 2 mL FastPrep tubes (MP Biomedicals, Solon Ohio). ¼″ ceramic sphere (MP Biomedicals) is added to each tube and 500 μL of Glo Lysis Buffer—GLB (Promega, Madison Wis.) equilibrated to room temperature is added to liver tissue. Liver tissues are homogenized with the FastPrep24 instrument (MP Biomedicals) at 2×6.0 m/s for 15 seconds. Homogenate is incubated at room temperature for 5 minutes prior to a 1:4 dilution in GLB and assessed using SteadyGlo Luciferase assay system (Promega). Specifically, 50 μL of diluted tissue homogenate is reacted with 50 μL of SteadyGlo substrate, shaken for 10 seconds followed by 5 minute incubation and then quantitated using a CentroXS^3 LB 960 luminometer (Berthold Technologies, Germany). The amount of protein assayed is determined by using the BCA protein assay kit (Pierce, Rockford Ill.). Relative luminescence units (RLU) are then normalized to total ug protein assayed. To convert RLU to ng luciferase a standard curve is generated with QuantiLum Recombinant Luciferase (Promega).
The FLuc mRNA (L-6107 or L-7202) from Trilink Biotechnologies will express a luciferase protein, originally isolated from the firefly, photinus pyralis. FLuc is commonly used in mammalian cell culture to measure both gene expression and cell viability. It emits bioluminescence in the presence of the substrate, luciferin. This capped and polyadenylated mRNA is fully substituted with respect to uridine and/or cytidine nucleosides.
The cationic lipids shown in Table 2 have previously been tested with nucleic acids. For comparative purposes, these lipids were also used to formulate lipid nanoparticles containing the FLuc mRNA (L-6107) using an in line mixing method, as described in Example 1 and in PCT/US10/22614, which is hereby incorporated by reference in its entirety. Lipid nanoparticles were formulated using the following molar ratio: 50% Cationic lipid/10% distearoylphosphatidylcholine (DSPC)/38.5% Cholesterol/1.5% PEG lipid (“PEG-DMG”, i.e., 1-(monomethoxy-polyethyleneglycol)-2,3-dimyristoylglycerol, with an average PEG molecular weight of 2000). In alternate embodiments, cationic lipid, DSPC, cholesterol and PEG-lipid are formulated at a molar ratio of approximately 47.5:10:40.8:1.7. […]

Compound	pKa [1]	Liver Luc @ 0.5 mg/kg (ng luc/g liver) [2]	Liver Luc @ 0.3 mg/kg (ng luc/g liver) [2]	Liver Luc @ 1.0 mg/kg (ng luc/g liver) [2]
CCCCCCCCC(CCCCCC)CN(CCCCCCN(C)C)CC(CCCCCC)CCCCCCCC (stereo not drawn) [Compound 15]	5.91	2417 ± 833 ng luc/g liver	–	–
CCCCCCCCC(CCCCCC)CN(CCCNC)CC(CCCCCC)CCCCCCCC (stereo not drawn) [Compound 17]	6.49	12 ± 5 ng luc/g liver	–	–
CCCCCCCCC(CCCCCC)CN(CCCCCN(C)C)CC(CCCCCC)CCCCCCCC (stereo not drawn) [Compound 5]	5.77	–	2840 ± 757 ng luc/g liver	13739 ± 7631 ng luc/g liver
CCCCCCCCC(CCCCCC)CN(CCCCN(C)C)CC(CCCCCC)CCCCCCCC (stereo not drawn) [Compound 4]	5.55	–	87 ± 11 ng luc/g liver	233 ± 121 ng luc/g liver
CCCCCCCCC(CCCCCC)CN(CCCCCN(CCO)CCO)CC(CCCCCC)CCCCCCCC (stereo not drawn) [Compound 16]	5.87	52 ± 26 ng luc/g liver	–	–
